The source of these data is patent publication US20250084043A1, “FORMULATION OF METAXALONE” (iCeutica Inc., priority 2013, published 2025).

Data set [1] in a line: Particle size distribution, Malvern Mastersizer 3000 laser particle size analyzer. The class given is physicochemical. The settings on record: aqueous dispersing medium. On the procedure: Submicron sized metaxalone drug particles were prepared by dry milling metaxalone drug substance (40%) together with lactose monohydrate and sodium lauryl sulfate in an attritor mill containing stainless steel grinding media. The total batch size was approximately 1 kg. Milled powder was discharged out the bottom of the mill and collected for analysis and further processing. […] Table 1, below, includes size data for the milled and unmilled metaxalone.

For data set [2] the following is noted: cited from earlier work.

SMILES strings stand for the structures. Read-outs that look alike come from different tables or passages of the source.

For the compound `Cc1cc(C)cc(OCC2CNC(=O)O2)c1` (stereo not shown) [Metaxalone], in data set [1], the “D[4, 3]” value was determined as 47.3 μm; the Dv10 was 16.0 μm; the Dv50 came out at 43.3 μm; the Dv90 turned out to be 81.8 μm. Moreover, the “Specific Surface Area” value in data set [1] was found to be 199.7 m^2/kg. In data set [2] (96% ethanol), the solubility entry was “soluble”. Moreover, in data set [2] (chloroform), the solubility result is given as “freely soluble”. Besides, the solubility entry in data set [2] (ether) is reported as “practically insoluble”. Besides, the solubility result in data set [2] (methanol) is listed as “soluble”. Besides, the solubility result in data set [2] (water) is on record as “practically insoluble”.
